Reference: patent US8452543B2, “High throughput screening for antimicrobial dosing regimens” (priority 2005, dated 2013)
Like-named read-outs stand apart in the source and are kept apart here.

Columns and labels:
[1] = system: amikacin resistant A. baumannii isolates; assay: Resistance confirmation, repeat susceptibility testing, amikacin; type: cell-based, Acinetobacter baumannii; details: amikacin resistant isolates
Description: The media plates were incubated at 35° C. for up to 24 (total population) and 72 hours (sub-populations with reduced susceptibility), then bacterial density from each sample was enumerated visually. The theoretical lower limit of detection was 400 CFU/ml.

in vivo = assay: in vivo
Description: In vivo meropenem concentrations in mouse serum were determined by a microbioassay utilizing Escherichia coli ATCC 25922 as the reference organism. The meropenem standard solutions ranged from 0.5 to 128 μg/ml in mouse serum.
Female Swiss-Webster mice (22-26 g) were used; all mice were cared for in accordance to the highest humane and ethical standards, as approved by the Institutional Animal Care and Use Committee (IACUC). The animals were housed in isolation boxes to decrease the risk of infection from extraneous pathogens. They received food and water ad libitum. The animals were rendered neutropenic by 2 intra-peritoneal injections of cyclophosphamide (Sigma, St. Louis, Mo.) 150 mg/kg on day −4 and 100 mg/kg on day −1 prior to infection; previous studies have shown that this regimen would produce neutropenia for 5 days (13, 16). Transient nephrotoxicity was induced by 1 intra-peritoneal injection of uranyl nitrate (5 mg/kg on day −2), which has been previously shown to produce a significant stable reduction in renal function for at least 7 days (21).
The bacterial inoculum was prepared and inoculated into the animals as outlined below. […] Six mice were sacrificed by CO2 asphyxiation at 0.5, 1, 1.5, 2, and 3 hours after injection. Blood samples were collected via cardiac puncture. The blood was allowed to clot on ice and centrifuged; meropenem concentrations in these serum samples were assayed by a validated method as described below. The serum concentration profiles of all the animals were analyzed by linear regression of the logarithmic-transformed data.

Pseudomonas aeruginosa = type: cell-based
Description: The computer simulations were compared to experimental data from an in-vitro hollow fiber infection model with similar antimicrobial agent exposures (20). Basically the drug was injected directly into the central reservoir to achieve the peak concentration desired. Fresh (drug-free) growth medium (Ca-MHB) was continuously infused from the diluent reservoir into the central reservoir to dilute the drug in order to simulate drug elimination in humans. An equal volume of meropenem-containing medium was removed from the central reservoir concurrently to maintain an isovolumetric system. […]
Various elimination half-lives (1-3 hours) of meropenem were simulated and were validated subsequently in the infection models. Serial samples were obtained at baseline and daily (pre-dose) in duplicate from each hollow fiber system, for quantitative culture to define the effect of various drug exposures on the total bacterial population and on selection of resistant bacterial sub-populations.
Prior to culturing the bacteria quantitatively, the bacterial samples were centrifuged at 15,000 G for 15 minutes and reconstituted with sterile normal saline in order to minimize drug carry-over effect. Total bacterial populations were quantified by spiral plating 10× serial dilutions of the samples (50 μl) onto drug-free Mueller-Hinton agar (MHA) plates (Hardy Diagnostics, Santa Maria, Calif.). […]

P. aeruginosa ATCC 27853 = assay: Time-kill studies and growth dynamics model, meropenem; type: cell-based, Pseudomonas aeruginosa; details: for EC50: read-out: Ck50 (the source's name)
Description: Time-kill studies were conducted with different and escalating meropenem concentrations. […] An overnight culture of the isolate was diluted 30-fold with pre-warmed Ca-MHB and incubated further at 35 8 C until reaching late log phase growth. The bacterial suspension was diluted with Ca-MHB accordingly based on absorbance at 630 nm; 15 mL of the suspension was transferred to 50 mL sterile conical flasks each containing 1 mL of an antimicrobial agent solution at 16 the target concentration. The final concentration of the bacterial suspension in each flask was 1×10^8 cfu/mL. The high inoculum used was to simulate the bacterial load in severe infection, and to allow resistant sub-population(s) to be present at baseline. The experiment was conducted for 24 h in a shaker water bath set at 35 8 C. Serial samples in duplicate were obtained from each flask over 24 h, at 0 (baseline), 2, 4, 8, 12, and 24 h, to characterize the effect of various meropenem concentrations on the total bacterial population. Prior to culturing the bacteria quantitatively, the bacterial samples (0.5 mL) were centrifuged at 10000 g for 15 min, and reconstituted with sterile normal saline to their original volumes in order to minimize drug carry-over effect. Total bacterial populations were quantified by spiral plating 10 serial dilutions of the samples ([…]) onto MHA plates. The media plates were incubated in a humidified incubator (35 8 C) for 18-24 h, and the bacterial density from each sample was determined by CASBA-4 colony scanner/software (Spiral Biotech, Bethesda, Md., USA). The theoretical lower limit of detection was 400 cfu/mL.
The time courses of bacterial burden under different drug exposures is described using a mathematical model. The population balance for a bacterial population is determined by: Rate of change of bacterial population over time=intrinsic growth rate−kill rate by antimicrobial agent or
In contrast to the conventional approach in which the final observed effects are modelled, information over time was utilized to develop a dynamic model system that would capture bacterial growth/killing rates. The starting point was a mathematical model describing the time course of bacterial burden [biological response, N(t)] under the influence of various antimicrobial agent concentrations C(t). The rate of change of bacteria over time was expressed as the difference between the intrinsic bacterial growth rate and the kill rate provided by the antimicrobial agent (Eq. 35). Based on previous studies, a linear bacterial growth rate was adopted. Additional model parameters were used to account for other physiological phenomena such as contact inhibition (using a maximum population size) and non-linear (sigmoidal) kill rate to account for target site saturation. Regrowth was attributed to adaptation, which was explicitly modelled as increase in the concentration necessary to achieve 50% maximal kill rate (C50k), using a saturable function of antimicrobial agent selective pressure (both meropenem concentration and time) (Eq. 36).
The experimental data derived from the time-kill studies were analysed by population analysis, using the non-parametric adaptive grid (NPAG) program (28). The killing profile observed with each meropenem concentration was input as a subject in the population analysis. The search algorithm sought the combination of parameter values and their distributions that would have the highest likelihood of explaining the observations made with all the meropenem concentrations in a single step (as opposed to fixing some parameter estimates sequentially while estimating the others). The explicit assumption was made that overall observation variance was proportional to variance of the measurement, i.e. quantitative cultures. The proportionality constant g was optimized with each cycle of the analysis.

[2] = female, Swiss-Webster, mouse, in vivo, 400 mg/kg
[3] = Mean of the parameter estimates

What does the source list for `C[C@@H](O)[C@H]1C(=O)N2C(C(=O)O)=C(S[C@@H]3CN[C@H](C(=O)N(C)C)C3)[C@H](C)[C@H]12` [meropenem]?
cross-resistance [1]: not; % T>MIC (in vivo; 400 mg/kg, OprD− mutant): 26%; % T>MIC (in vivo; 400 mg/kg, wild-type isolate): 33%; Cmax (in vivo; [2]): 354 µg/mL; half-life (in vivo; [2]): 19 min; serum concentration (in vivo; lower doses (50 mg/kg and 100 mg/kg)): did not result a detectable serum meropenem concentration beyond 1 hour; microbial response (Pseudomonas aeruginosa): associated with regrowth; Cmin/MIC necessary to suppress the emergence of resistance (Pseudomonas aeruginosa; Cmax 64 μg/ml, dosing every 8 hours for 5 days): ≥ 4; regrowth (P. aeruginosa ATCC 27853; 0.25 MIC and 1 MIC, between 12 and 24 h): Regrowth was observed; Kg (P. aeruginosa ATCC 27853; [3]): 4.71 h − 1; Kg (P. aeruginosa ATCC 27853; meropenem Concn 0.25 mg/L): 9.60 h − 1; Kg (P. aeruginosa ATCC 27853; meropenem Concn 1 mg/L): 4.08 h − 1; Kg (P. aeruginosa ATCC 27853; meropenem Concn 4 mg/L): 3.12 h − 1; Kg (P. aeruginosa ATCC 27853; meropenem Concn 16 mg/L): 3.41 h − 1; Kg (P. aeruginosa ATCC 27853; meropenem Concn 64 mg/L): 3.95 h − 1; H (P. aeruginosa ATCC 27853; [3]): 2.83; β (P. aeruginosa ATCC 27853; [3]): 5.85; τ (P. aeruginosa ATCC 27853; [3]): 158 µL/min/mg; MIC (P. aeruginosa ATCC 27853; Pseudomonas aeruginosa, ATCC27853, 24 h, validation time-kill, meropenem at 2 MIC, read-out: MIC of the entire bacterial population at 24 h): > 1 µg/mL; EC50 (P. aeruginosa ATCC 27853; Pseudomonas aeruginosa, ATCC27853, Mean of the parameter estimates): 2.29 µg/mL; EC50 (P. aeruginosa ATCC 27853; Pseudomonas aeruginosa, ATCC27853, meropenem Concn 0.25 mg/L): 0.44 µg/mL; EC50 (P. aeruginosa ATCC 27853; Pseudomonas aeruginosa, ATCC27853, meropenem Concn 1 mg/L): 3.53 µg/mL; EC50 (P. aeruginosa ATCC 27853; Pseudomonas aeruginosa, ATCC27853, meropenem Concn 4 mg/L): 0.74 µg/mL; EC50 (P. aeruginosa ATCC 27853; Pseudomonas aeruginosa, ATCC27853, meropenem Concn 16 mg/L): 2.61 µg/mL; EC50 (P. aeruginosa ATCC 27853; Pseudomonas aeruginosa, ATCC27853, meropenem Concn 64 mg/L): 2.9 µg/mL; concentration necessary to attain 80% maximal kill rate (C80k) (P. aeruginosa ATCC 27853; at baseline): 3.8 mg/L; concentration necessary to attain 90% maximal kill rate (C90k) (P. aeruginosa ATCC 27853; at baseline): 5.0 mg/L; H (P. aeruginosa ATCC 27853; meropenem Concn 0.25 mg/L): 3.81; β (P. aeruginosa ATCC 27853; meropenem Concn 0.25 mg/L): 3.79; τ (P. aeruginosa ATCC 27853; meropenem Concn 0.25 mg/L): 350 µL/min/mg; H (P. aeruginosa ATCC 27853; meropenem Concn 1 mg/L): 1.48; β (P. aeruginosa ATCC 27853; meropenem Concn 1 mg/L): 6.64; τ (P. aeruginosa ATCC 27853; meropenem Concn 1 mg/L): 183 µL/min/mg; H (P. aeruginosa ATCC 27853; meropenem Concn 4 mg/L): 1.67; β (P. aeruginosa ATCC 27853; meropenem Concn 4 mg/L): 4.48; τ (P. aeruginosa ATCC 27853; meropenem Concn 4 mg/L): 115 µL/min/mg; H (P. aeruginosa ATCC 27853; meropenem Concn 16 mg/L): 7.74; β (P. aeruginosa ATCC 27853; meropenem Concn 16 mg/L): 4.85; τ (P. aeruginosa ATCC 27853; meropenem Concn 16 mg/L): 85 µL/min/mg; H (P. aeruginosa ATCC 27853; meropenem Concn 64 mg/L): 0.79; β (P. aeruginosa ATCC 27853; meropenem Concn 64 mg/L): 8.70; τ (P. aeruginosa ATCC 27853; meropenem Concn 64 mg/L): 23.3 µL/min/mg; drop in bacterial burden at 24 h (P. aeruginosa ATCC 27853; meropenem concentrations 4 MIC (4 mg/L)): > 2 log; concentration at which initial killing appeared maximized (P. aeruginosa ATCC 27853; time-kill): 4 MIC; killing profile (P. aeruginosa ATCC 27853; time-kill): partially concentration-dependent; regrowth (P. aeruginosa ATCC 27853; validation time-kill, meropenem at 2 MIC): regrowth; regrowth (P. aeruginosa ATCC 27853; validation time-kill, meropenem at 32 MIC): no regrowth was observed
